This experiment can be described thus: Liposome alanine efflux coupled with enzymatic assays. The note with it: alanine efflux after one hour of exposure; alanine-loaded DPPC/cholesterol (3:1) liposomes; carrier added in DMSO; control with no carrier 0.7. As to the method:
Two sets of tests were undertaken to determine the viability of such aminophosphonate compounds as drug carriers in liposome-based delivery systems. The first evaluated liposome efflux coupled with enzymatic assays. In such an experiment, unilamellar liposomes loaded with 300 mM of alanine (an amino acid) were prepared from dipalmitoyl phosphatidyl choline (DPPC) and cholesterol (3:1 molar ratio) (in accordance with Torchilin, V. et al., Liposomes 2003, Second Edition, Oxford Press). Several samples of alanine-loaded liposomes were then loaded further with identical amounts of the different aminophosphonate carriers from above (with DMSO as a solvent) thereby producing different samples with different carriers but with same concentrations. The liposomes were then measured for alanine efflux after one hour of exposure as the conversion of alanine to pyruvate, catalyzed by Glutamic-Pyruvic Transmaminase enzyme, and further to lactate, catalyzed by the enzyme Lactate Dehydrogenase, accompanied by the oxidation of nicotinamide cofactor NADH to NAD^+ (as monitored by UV spectroscopy). The results are tabulated below (with a control of no carrier): […]

As to `CCCCOP(=O)(OCCCC)C(C)(C)NCc1ccccc1` [Example 2], the “Alanine Flux” value was 3.1 nmol/h × m^2.

As for `COP(=O)(OC)C(C)(C)NCc1ccccc1` [Example 1], the “Alanine Flux” value worked out at 4.4 nmol/h × m^2.

`CCCCOP(=O)(OCCCC)C1(Nc2ccccc2)CCCCC1` [Example 7]: the “Alanine Flux” value was found to be 4.4 nmol/h × m^2.

Turning to `COP(=O)(OC)C1(NCc2ccccc2)CCCCC1` [Example 4], the “Alanine Flux” value came to 7.2 nmol/h × m^2.

On to `CCCCC(CC)COP(=O)(OCC(CC)CCCC)C(C)(C)NCc1ccccc1` (stereo not shown) [Example 3], for which the “Alanine Flux” value is given as 4.3 nmol/h × m^2.

In the case of `COP(=O)(OC)C(C)(C)Nc1ccccc1` [Example 6], the “Alanine Flux” value stood at 7.8 nmol/h × m^2.

On to `CCCCOP(=O)(OCCCC)C1(NCc2ccccc2)CCCCC1` [Example 5], for which the “Alanine Flux” value is reported as 4.4 nmol/h × m^2.

These data come from patent US20100178326A1, “AMINOPHOSPHONATE CARRIERS FOR LIPOSOME-BASED DRUG RELEASE SYSTEMS” (priority 2008, published 2010).
